These results are taken from US8461329B2, “Isoquinoline derivative” (Taisho Pharmaceutical Co., Ltd., priority 2008, dated 2013).

The target of experiment [1] is T1, human CRTH2 expression cell KB8 (Homo sapiens, UniProt Q9Y5Y4).
T1 construct: host or cells: KB8 cells (human CRTH2 expression cell)
T1 sequence (Q9Y5Y4 1-395): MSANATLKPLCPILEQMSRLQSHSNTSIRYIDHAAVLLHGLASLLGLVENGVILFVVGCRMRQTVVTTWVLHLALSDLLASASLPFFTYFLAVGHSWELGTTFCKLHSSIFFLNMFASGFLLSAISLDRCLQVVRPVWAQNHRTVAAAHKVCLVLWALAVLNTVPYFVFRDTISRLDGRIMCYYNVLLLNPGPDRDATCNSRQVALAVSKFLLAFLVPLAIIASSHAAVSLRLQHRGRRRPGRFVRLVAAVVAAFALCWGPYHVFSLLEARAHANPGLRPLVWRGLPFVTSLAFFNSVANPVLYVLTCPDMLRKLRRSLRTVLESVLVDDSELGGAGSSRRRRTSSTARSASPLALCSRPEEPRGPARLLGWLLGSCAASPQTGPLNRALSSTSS
Kind of experiment: CRTH2 binding test (3H-PGD2 binding to KB8 cells). As to conditions: 3H-PGD2 5 nM, 4° C., one hour. The procedure:
CRTH2 binding inhibitory activity of the compound of the present invention was considered by using a binding test between human CRTH2 expression cell KB8 (BML, INC.) and ^3H-labeled prostaglandin D2 (hereinafter, abbreviated as ^3H-PGD2, manufactured by GE Healthcare).
KB8 was suspended in a reaction buffer solution (Hank's balanced salt solution (Invitrogen) containing 10 mM HEPES (Invitrogen)), which was dispensed in a 96 well plate (Coaster) so that 2×10^5 cells/well are placed. Furthermore, the compound of the present invention and ^3H-PGD2 (final concentration: 5 nM) were added, stirred, and incubated at 4° C.
One hour later, cells were collected on GF/C Filter Plate (PerkinElmer) that had been pre-coated with 0.5% polyethyleneimine solution (SIGMA) by using a Cell Harvester (Packard BioScience), and the radioactivity of the cells was measured by using Top count NXT (PerkinElmer) (a value measured herein was represented by a measurement value “a”). The same procedure was carried out in the absence of the compound, and a measurement value “b” was obtained; and the same procedure was carried out in the absence of the compound and in the presence of non-labeled PGD2 (final concentration: 50 μM), a measurement value “c” was obtained.
The binding inhibition rate of the compound was calculated by the following calculation formula: Bonding inhibitory rate(%)=[1−(a−c)/(b−c)]×100
That is to say, by using binding inhibition rates of compounds to be tested having various concentrations, the IC50 value was calculated according to a dose-dependent inhibition curve analyzed by using XLfit (IDBS) as a data analysis software, and the calculated value was defined as an indicator of the inhibitory activity. In Table 9, A denotes an inhibitory activity showing the IC50 value of less than 50 nM; B denotes an inhibitory activity showing the IC50 value of 50 nM or greater and less than 500 nM; C denotes an inhibitory activity showing the IC50 value of 500 nM or greater and less than 1000 nM; and D denotes an inhibitory activity showing the IC50 value of 1000 nM or greater.

The target of a further experiment is T2, CRTH2 (KB8 cells) (Homo sapiens, UniProt Q9Y5Y4).
T2 construct: host or cells: KB8 cells (human CRTH2 expression cell)
T2 sequence (Q9Y5Y4 1-395): T1 sequence (Q9Y5Y4 1-395)
As to the kind of experiment: CRTH2 antagonist test (PGD2-induced intracellular calcium ion concentration increase in KB8 cells). The format is cell-based. The settings on record: PGD2 final concentration 100 nM, Fluo-4-AM fluorescence, read-out: antagonist activity (IC50 value, inhibition of calcium ion concentration increase). In short, it runs like this:
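Fluo-4-AM-loaded KB8 cells in HBSS with 10 mM HEPES and 1 mM CaCl2 received compound plus PGD2 (final 100 nM); peak fluorescence followed over time. Inhibition was computed against no-compound and unlabelled-PGD2 controls, and IC50 obtained from a dose-response curve.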
In general terms: A change in cytosolic calcium serves as a functional read-out for many receptors and channels.

[2] abbreviates: IC50 class, read-out: binding inhibitory activity.
Where [3] appears, read: read-out: CRTH2 binding inhibitory activity IC50 value.

Read-outs that look alike come from different tables or passages of the source.

As to `CC(C)(C)OC(=O)Nc1ccc(C(=O)c2ncc(CC(=O)O)c3ccccc23)cc1` [Example 1, [1-({4-[(tert-butoxycarbonyl)amino]phenyl}carbonyl)isoquinolin-4-yl]acetic acid], the IC50 in experiment [1] (setting [2]) was less than 50 nM; at CRTH2 (KB8 cells), 50 to 500 nM.

Regarding `O=C(O)Cc1cnc(C(=O)c2ccc(NC(=O)c3ccc(Cl)c(Cl)c3)cc2)c2ccccc12` [Example 2, {1-[(4-{[(3,4-dichlorophenyl)carbonyl]amino}phenyl)carbonyl]isoquinolin-4-yl}acetic acid], the IC50 (in experiment [1] (setting [2]); at CRTH2 (KB8 cells)) was less than 50 nM throughout.

Consider `O=C(O)Cc1cnc(C(=O)c2ccc(NC(=O)Cc3ccc(Cl)c(Cl)c3)cc2)c2ccccc12` [Example 3], for which the IC50 (in experiment [1] (setting [2]); on CRTH2 (KB8 cells)) was less than 50 nM each time.

In the case of `O=C(O)Cc1cnc(C(=O)c2ccc(NC(=O)CCc3ccc(Cl)c(Cl)c3)cc2)c2ccccc12` [Example 4], the IC50 (in experiment [1] (setting [2]); on CRTH2 (KB8 cells)) was less than 50 nM in each case.

In the case of `O=C(O)Cc1cnc(C(=O)c2ccc(NC(=O)C3(c4ccc(Cl)c(Cl)c4)CC3)cc2)c2ccccc12` [Example 5], the IC50 in experiment [1] (setting [2]) is less than 50 nM; on CRTH2 (KB8 cells) it was 50 to 500 nM.

Take `O=C(O)Cc1cnc(C(=O)c2ccc(NC(=O)/C=C/c3ccc(Cl)c(Cl)c3)cc2)c2ccccc12` [Example 6]: the IC50 (in experiment [1] (setting [2]); at CRTH2 (KB8 cells)) was less than 50 nM in each case.

Take `COc1ccc(C(=O)Nc2ccc(C(=O)c3ncc(CC(=O)O)c4ccccc34)cc2)cc1` [Example 7]: the IC50 (in experiment [1] (setting [2]); at CRTH2 (KB8 cells)) was less than 50 nM in each case.

For `O=C(O)Cc1cnc(C(=O)c2ccc(NC(=O)c3ccc(OC(F)(F)F)cc3)cc2)c2ccccc12` [Example 8], the IC50 (in experiment [1] (setting [2]); on CRTH2 (KB8 cells)) was less than 50 nM each time.

Regarding `O=C(O)Cc1cnc(C(=O)c2ccc(NC(=O)c3ccc(Oc4ccccc4)cc3)cc2)c2ccccc12` [Example 9], the IC50 in experiment [1] (setting [2]) was less than 50 nM; on CRTH2 (KB8 cells), 50 to 500 nM.

As for `O=C(O)Cc1cnc(C(=O)c2ccc(NC(=O)c3ccc(-c4ccccc4)cc3)cc2)c2ccccc12` [Example 10], the IC50 (in experiment [1] (setting [2]); at CRTH2 (KB8 cells)) was less than 50 nM in each case.

In the case of `O=C(O)Cc1cnc(C(=O)c2ccc(NC(=O)c3ccc(C(F)(F)F)cc3)cc2)c2ccccc12` [Example 11], the IC50 (in experiment [1] (setting [2]); on CRTH2 (KB8 cells)) was less than 50 nM each time.

For the compound `CN(C)c1ccc(C(=O)Nc2ccc(C(=O)c3ncc(CC(=O)O)c4ccccc34)cc2)cc1` [Example 12], the IC50 (in experiment [1] (setting [2]); at CRTH2 (KB8 cells)) was less than 50 nM in each case.

`N#Cc1ccc(C(=O)Nc2ccc(C(=O)c3ncc(CC(=O)O)c4ccccc34)cc2)cc1` [Example 13]: the figures for the IC50 (in experiment [1] (setting [2]); on CRTH2 (KB8 cells)) were less than 50 nM and no less than 1000 nM, respectively.

On to `O=C(O)Cc1cnc(C(=O)c2ccc(NC(=O)c3ccc4ccccc4c3)cc2)c2ccccc12` [Example 14], for which the IC50 (in experiment [1] (setting [2]); on CRTH2 (KB8 cells)) was less than 50 nM in each case.

For `O=C(O)Cc1cnc(C(=O)c2ccc(NC(=O)c3ccc([N+](=O)[O-])cc3)cc2)c2ccccc12` [Example 15], the IC50 (in experiment [1] (setting [2]); at CRTH2 (KB8 cells)) was less than 50 nM in each case.

Consider `Cc1ccc(C(=O)Nc2ccc(C(=O)c3ncc(CC(=O)O)c4ccccc34)cc2)cc1` [Example 17], for which the IC50 (in experiment [1] (setting [2]); on CRTH2 (KB8 cells)) was less than 50 nM in each case.

With `O=C(O)Cc1cnc(C(=O)c2ccc(NC(=O)c3cc4ccccc4[nH]3)cc2)c2ccccc12` [Example 18], the results for the IC50 (in experiment [1] (setting [2]); in experiment [1] (setting [3]); on CRTH2 (KB8 cells)) were less than 50 nM, 3.5 nM and less than 50 nM, respectively.

As to `CC(=O)Nc1ccc(C(=O)c2ncc(CC(=O)O)c3ccccc23)cc1` [Example 19], the IC50 in experiment [1] (setting [2]) lay within 50 to 500 nM.

As for `O=C(O)Cc1cnc(C(=O)c2ccc(NC(=O)C3CC3)cc2)c2ccccc12` [Example 20], the IC50 in experiment [1] (setting [2]) was less than 50 nM.

On to `O=C(O)Cc1cnc(C(=O)c2ccc(NC(=O)CC3CCCCC3)cc2)c2ccccc12` [Example 21], for which the values for the IC50 (in experiment [1] (setting [2]); at CRTH2 (KB8 cells)) were less than 50 nM and 50 to 500 nM, respectively.

Consider `O=C(O)Cc1cnc(C(=O)c2ccc(NC(=O)Cc3ccc(-c4ccccc4)cc3)cc2)c2ccccc12` [Example 22], for which the IC50 in experiment [1] (setting [2]) was less than 50 nM; at CRTH2 (KB8 cells), 50 to 500 nM.

Regarding `O=C(O)Cc1cnc(C(=O)c2ccc(NC(=O)COc3ccc(Cl)c(Cl)c3)cc2)c2ccccc12` [Example 23], the IC50 (in experiment [1] (setting [2]); at CRTH2 (KB8 cells)) was less than 50 nM throughout.

On to `O=C(O)Cc1cnc(C(=O)c2ccc(NC(=O)c3cccc(Cl)c3)cc2)c2ccccc12` [Example 27], for which the IC50 (in experiment [1] (setting [2]); at CRTH2 (KB8 cells)) was less than 50 nM each time.

On to `O=C(O)Cc1cnc(C(=O)c2ccc(NC(=O)c3ccc(Cl)cc3)cc2)c2ccccc12` [Example 29], for which the IC50 (in experiment [1] (setting [2]); at CRTH2 (KB8 cells)) was less than 50 nM in each case.

On to `O=C(O)Cc1cnc(C(=O)c2ccc(NC(=O)c3ccc(F)c(Cl)c3)cc2)c2ccccc12` [Example 34], for which the IC50 (in experiment [1] (setting [2]); at CRTH2 (KB8 cells)) was less than 50 nM in each case.

On to `O=C(O)Cc1cnc(C(=O)c2ccc(NC(=O)c3cc4ccccc4o3)cc2)c2ccccc12` [Example 50], for which the IC50 (in experiment [1] (setting [2]); at CRTH2 (KB8 cells)) was less than 50 nM throughout.

In the case of `CCCCCc1ccc(C(=O)Nc2ccc(C(=O)c3ncc(CC(=O)O)c4ccccc34)cc2)cc1` [Example 57], the IC50 is less than 50 nM in experiment [1] (setting [2]), 3.4 nM in experiment [1] (setting [3]) and less than 50 nM at CRTH2 (KB8 cells).

For `O=C(O)Cc1cnc(C(=O)c2ccc(NC(=O)c3cccc(Br)c3)cc2)c2ccccc12` [Example 75], the results for the IC50 (in experiment [1] (setting [2]); in experiment [1] (setting [3]); at CRTH2 (KB8 cells)) were less than 50 nM, 2.9 nM and less than 50 nM, respectively.

Regarding `O=C(O)Cc1cnc(C(=O)c2ccc(NC(=O)C3CCC(c4ccc(Cl)cc4)CC3)cc2)c2ccccc12` (centres unmarked) [Example 82], the IC50 in experiment [1] (setting [2]) is less than 50 nM; in experiment [1] (setting [3]), 2.8 nM; on CRTH2 (KB8 cells) it was less than 50 nM.

Regarding `O=C(O)Cc1cnc(C(=O)c2ccc(NC(=O)/C=C/c3ccc(F)cc3)cc2)c2ccccc12` [Example 83], the IC50 (in experiment [1] (setting [2]); at CRTH2 (KB8 cells)) was less than 50 nM each time.

For the compound `O=C(O)Cc1cnc(C(=O)c2ccc(NC(=O)c3cc4cc(Cl)ccc4[nH]3)cc2)c2ccccc12` [Example 92], the IC50 (in experiment [1] (setting [2]); at CRTH2 (KB8 cells)) was less than 50 nM throughout.

As to `O=C(O)Cc1cnc(C(=O)c2cccc(NC(=O)c3ccc(Cl)c(Cl)c3)c2)c2ccccc12` [Example 127, {1-[(3-{[(3,4-dichlorophenyl)carbonyl]amino}phenyl)carbonyl]isoquinolin-4-yl}acetic acid], in experiment [1] (setting [2]), the IC50 was in the range of 50 to 500 nM.

In the case of `CN(C(=O)c1ccc(Cl)c(Cl)c1)c1ccc(C(=O)c2ncc(CC(=O)O)c3ccccc23)cc1` [Example 128, {1-[(4-{[(3,4-dichlorophenyl)carbonyl](methyl)amino}phenyl)carbonyl]isoquinolin-4-yl}acetic acid], in experiment [1] (setting [2]), the IC50 was in the range of 50 to 500 nM.

On to `O=C(O)Cc1cnc(C(=O)c2ccc(NS(=O)(=O)c3ccc(Cl)c(Cl)c3)cc2)c2ccccc12` [Example 129, {1-[(4-{[(3,4-dichlorophenyl)sulfonyl]amino}phenyl)carbonyl]isoquinolin-4-yl}acetic acid], for which, in experiment [1] (setting [2]), the IC50 is 50 to 500 nM.

Turning to `O=C(O)Cc1cnc(C(=O)c2ccc(Cc3ccccc3)cc2)c2ccccc12` [Example 144, {1-[(4-benzyl phenyl)carbonyl]isoquinolin-4-yl}acetic acid], in experiment [1] (setting [2]), the IC50 was in the range of 50 to 500 nM.
